{"source": "patent US20050112573A1", "about": "“Method of detecting toxic substance” (priority 2001, published 2005)", "system": "yeast genes (level of expressed mRNA)", "assay": "DNA chip analysis of expressed mRNA of yeast genes after 2 h culture with a toxic chemical substance", "type": "cell-based, Saccharomyces cerevisiae S288C", "procedure,_shortened": "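S. cerevisiae S288C in YPD at 25 °C was exposed at log phase for 2 h to a growth-inhibiting, non-lethal concentration of the chemical. Poly(A) mRNA was reverse-transcribed with Cy3- or Cy5-dUTP and hybridized to a whole-genome yeast DNA chip (65 °C, >12 h). Values are fluorescence ratios versus untreated cells.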"}
{"substance": "Na2As [(1)]", "values": [{"measurement": "The level of expressed mRNA in the presence of chemical substance/", "setting": "yeast gene YAL053W, ratio to control without chemical", "value": 0.9}, {"measurement": "The level of expressed mRNA in the presence of chemical substance/The level of expressed mRNA in the absence of chemical substance", "setting": "yeast gene YAR010C", "value": 0.8}, {"measurement": "The level of expressed mRNA in the presence of chemical substance/The level of expressed mRNA in the absence of chemical substance", "setting": "yeast gene YBL005W-A", "value": 1.0}, {"measurement": "The level of expressed mRNA in the presence of chemical substance/The level of expressed mRNA in the absence of chemical substance", "setting": "yeast gene YBL041W", "value": 1.2}, {"measurement": "The level of expressed mRNA in the presence of chemical substance/The level of expressed mRNA in the absence of chemical substance", "setting": "yeast gene YBL043W", "value": 1.2}, {"measurement": "The level of expressed mRNA in the presence of chemical substance/", "setting": "yeast gene YBL048W, ratio to control without chemical substance, 2 h culture", "value": 2.0}, {"measurement": "The level of expressed mRNA in the presence of chemical substance/The level of expressed mRNA in the absence of chemical substance", "setting": "yeast gene YBL078C", "value": 2.3}, {"measurement": "The level of expressed mRNA in the presence of chemical substance/", "setting": "yeast gene YBL107C, ratio to control without chemical substance, 2 h culture", "value": 1.4}, {"measurement": "The level of expressed mRNA in the presence of chemical substance/in the absence of chemical substance", "setting": "yeast gene YBR036C", "value": 0.8}, {"measurement": "The level of expressed mRNA in the presence of chemical substance/The level of expressed mRNA in the absence of chemical substance", "setting": "yeast gene YBR214W", "value": 0.9}, {"measurement": "The level of expressed mRNA in the presence of chemical substance/in the absence of chemical substance", "setting": "yeast gene YBR298C", "value": 1.1}, {"measurement": "The level of expressed mRNA in the presence of chemical substance/The level of expressed mRNA in the absence of chemical substance", "setting": "yeast gene YCL020W", "value": 1.1}, {"measurement": "The level of expressed mRNA in the presence of chemical substance/The level of expressed mRNA in the absence of chemical substance", "setting": "yeast gene YCL027W", "value": 0.7}, {"measurement": "The level of expressed mRNA in the presence of chemical substance/The level of expressed mRNA in the absence of chemical substance", "setting": "yeast gene YCR004C", "value": 1.7}, {"measurement": "The level of expressed mRNA in the presence of chemical substance/The level of expressed mRNA in the absence of chemical substance", "setting": "yeast gene YCR071C", "value": 1.1}, {"measurement": "The level of expressed mRNA in the presence of chemical substance/The level of expressed mRNA in the absence of chemical substance", "setting": "yeast gene YCR088W", "value": 0.9}, {"measurement": "The level of expressed mRNA in the presence of chemical substance/The level of expressed mRNA in the absence of chemical substance", "setting": "yeast gene YDL008W", "value": 1.1}, {"measurement": "The level of expressed mRNA in the presence of chemical substance/", "setting": "yeast gene YDL072C, ratio to control without chemical", "value": 1.3}, {"measurement": "The level of expressed mRNA in the presence of chemical substance/in the absence of chemical substance", "setting": "yeast gene YDL078C", "value": 0.7}, {"measurement": "The level of expressed mRNA in the presence of chemical substance/", "setting": "yeast gene YDL204W, ratio to control without chemical", "value": 1.4}, {"measurement": "The level of expressed mRNA in the presence of chemical substance/in the absence of chemical substance", "setting": "yeast gene YDL215C", "value": 1.0}, {"measurement": "The level of expressed mRNA in the presence of chemical substance/", "setting": "yeast gene YDL222C, ratio to control without chemical", "value": 0.9}, {"measurement": "The level of expressed mRNA in the presence of chemical substance/The level of expressed mRNA in the absence of chemical substance", "setting": "yeast gene YDL238C", "value": 0.7}, {"measurement": "The level of expressed mRNA in the presence of chemical substance/The level of expressed mRNA in the absence of chemical substance", "setting": "yeast gene YDR055W", "value": 1.7}, {"measurement": "The level of expressed mRNA in the presence of chemical substance/The level of expressed mRNA in the absence of chemical substance", "setting": "yeast gene YDR084C", "value": 0.9}, {"measurement": "The level of expressed mRNA in the presence of chemical substance/The level of expressed mRNA in the absence of chemical substance", "setting": "yeast gene YDR085C", "value": 1.9}, {"measurement": "The level of expressed mRNA in the presence of chemical substance/The level of expressed mRNA in the absence of chemical substance", "setting": "yeast gene YDR104C", "value": 0.8}, {"measurement": "The level of expressed mRNA in the presence of chemical substance/The level of expressed mRNA in the absence of chemical substance", "setting": "yeast gene YDR115W", "value": 1.3}, {"measurement": "The level of expressed mRNA in the presence of chemical substance/The level of expressed mRNA in the absence of chemical substance", "setting": "yeast gene YDR259C", "value": 1.4}, {"measurement": "The level of expressed mRNA in the presence of chemical substance/in the absence of chemical substance", "setting": "yeast gene YDR297W", "value": 1.5}, {"measurement": "The level of expressed mRNA in the presence of chemical substance/The level of expressed mRNA in the absence of chemical substance", "setting": "yeast gene YDR315C", "value": 1.0}, {"measurement": "The level of expressed mRNA in the presence of chemical substance/", "setting": "yeast gene YDR330W, ratio to control without chemical substance, 2 h culture", "value": 0.8}, {"measurement": "The level of expressed mRNA in the presence of chemical substance/The level of expressed mRNA in the absence of chemical substance", "setting": "yeast gene YDR358W", "value": 0.7}, {"measurement": "The level of expressed mRNA in the presence of chemical substance/in the absence of chemical substance", "setting": "yeast gene YDR387C", "value": 0.8}, {"measurement": "The level of expressed mRNA in the presence of chemical substance/The level of expressed mRNA in the absence of chemical substance", "setting": "yeast gene YDR388W", "value": 0.7}, {"measurement": "The level of expressed mRNA in the presence of chemical substance/", "setting": "yeast gene YDR411C, ratio to control without chemical substance, 2 h culture", "value": 0.9}, {"measurement": "The level of expressed mRNA in the presence of chemical substance/The level of expressed mRNA in the absence of chemical substance", "setting": "yeast gene YDR432W", "value": 0.5}, {"measurement": "The level of expressed mRNA in the presence of chemical substance/The level of expressed mRNA in the absence of chemical substance", "setting": "yeast gene YDR481C", "value": 0.7}, {"measurement": "The level of expressed mRNA in the presence of chemical substance/The level of expressed mRNA in the absence of chemical substance", "setting": "yeast gene YDR510W", "value": 1.0}, {"measurement": "The level of expressed mRNA in the presence of chemical substance/", "setting": "yeast gene YDR511W, ratio to control without chemical substance, 2 h culture", "value": 1.3}, {"measurement": "The level of expressed mRNA in the presence of chemical substance/", "setting": "yeast gene YDR545W, ratio to control without chemical substance, 2 h culture", "value": 0.6}, {"measurement": "The level of expressed mRNA in the presence of chemical substance/", "setting": "yeast gene YEL001C, ratio to control without chemical", "value": 1.0}, {"measurement": "The level of expressed mRNA in the presence of chemical substance/The level of expressed mRNA in the absence of chemical substance", "setting": "yeast gene YEL042W", "value": 0.6}, {"measurement": "The level of expressed mRNA in the presence of chemical substance/The level of expressed mRNA in the absence of chemical substance", "setting": "yeast gene YEL066W", "value": 2.0}, {"measurement": "The level of expressed mRNA in the presence of chemical substance/", "setting": "yeast gene YER004W, ratio to control without chemical substance, 2 h culture", "value": 1.0}, {"measurement": "The level of expressed mRNA in the presence of chemical substance/", "setting": "yeast gene YER035W, ratio to control without chemical substance, 2 h culture", "value": 1.4}, {"measurement": "The level of expressed mRNA in the presence of chemical substance/The level of expressed mRNA in the absence of chemical substance", "setting": "yeast gene YER039C", "value": 1.0}, {"measurement": "The level of expressed mRNA in the presence of chemical substance/", "setting": "yeast gene YER079W, ratio to control without chemical substance, 2 h culture", "value": 1.1}, {"measurement": "The level of expressed mRNA in the presence of chemical substance/", "setting": "yeast gene YER106W, ratio to control without chemical", "value": 1.3}, {"measurement": "The level of expressed mRNA in the presence of chemical substance/The level of expressed mRNA in the absence of chemical substance", "setting": "yeast gene YER107C", "value": 0.9}, {"measurement": "The level of expressed mRNA in the presence of chemical substance/The level of expressed mRNA in the absence of chemical substance", "setting": "yeast gene YER130C", "value": 0.9}, {"measurement": "The level of expressed mRNA in the presence of chemical substance/", "setting": "yeast gene YER158C, ratio to control without chemical substance, 2 h culture", "value": 1.2}, {"measurement": "The level of expressed mRNA in the presence of chemical substance/", "setting": "yeast gene YER163C, ratio to control without chemical substance, 2 h culture", "value": 1.1}, {"measurement": "The level of expressed mRNA in the presence of chemical substance/", "setting": "yeast gene YER175C, ratio to control without chemical substance, 2 h culture", "value": 0.9}, {"measurement": "The level of expressed mRNA in the presence of chemical substance/", "setting": "yeast gene YFL006W, ratio to control without chemical substance, 2 h culture", "value": 0.8}]}
